Values after ≈ are worked out from the molar mass of the structure shown.
Assays:
[1] = tested on: C. albicans HIV patient YHO50001; assay: organism not typed
[2] = tested on: C. glabrata HIV patient YHO50105; assay: organism not typed
[3] = tested on: C. tropicalis HIV patient YHO50013; assay: organism not typed
[4] = tested on: C. krusei HIV patient YHO50075; assay: organism not typed
[5] = tested on: C. krusei ATCC 6258 YLO6; assay: microbe, parasite or virus in culture; details: Pichia kudriavzevii, ATCC6258
[6] = tested on: C. parapsilosis ATCC 22019 YLO7; assay: microbe, parasite or virus in culture; details: Lodderomyces parapsilosis, ATCC22019
[7] = tested on: C. albicans HIV patient YHO50072; assay: organism not typed
[8] = tested on: C. tropicalis ATCC 13803 YLO86; assay: microbe, parasite or virus in culture; details: Candida tropicalis, ATCC13803
[9] = tested on: C. albicans HIV patient YHO50005; assay: organism not typed
[10] = tested on: C. tropicalis HIV patient YHO50007; assay: organism not typed
[11] = tested on: C. albicans ATCC 90028 YLO12; assay: microbe, parasite or virus in culture; details: Candida albicans, ATCC90028
[12] = tested on: C. tropicalis HIV patient YHO50114; assay: organism not typed
[13] = tested on: C. dubliniensis HIV patient YHO50092; assay: organism not typed
[14] = tested on: C. glabrata ATCC 9003 YLO8; assay: microbe, parasite or virus in culture; details: Nakaseomyces glabratus, ATCC9003

Compound OC(Cn1cncn1)(Cn1cncn1)c1ccc(F)cc1F [Flu, fluconazole] has an MIC [1] of 2 µg/mL (≈ 6.53 µM), an MIC [2] of 16 µg/mL (≈ 52.2 µM) and an MIC [3] of over 64 µg/mL. It also gave an MIC [4] of 64 µg/mL (≈ 209 µM), an MIC [5] of 32 µg/mL (≈ 104 µM) and an MIC [6] of 8 µg/mL (≈ 26.1 µM). It also gave an MIC [7] of over 64 µg/mL, an MIC [8] of over 64 µg/mL and an MIC [9] of 1 µg/mL (≈ 3.27 µM). For the same compound, the MIC [10] was over 64 µg/mL, the MIC [11] was 1 µg/mL (≈ 3.27 µM) and the MIC [12] was over 64 µg/mL. For the same compound, the MIC [13] was 0.5 µg/mL (≈ 1.63 µM) and the MIC [14] was 16 µg/mL (≈ 52.2 µM).

Reference: patent publication US9073967B2, “High salt-resistance antibacterial peptide and method for producing the same” (NATIONAL TSING HUA UNIVERSITY, priority 2011, dated 2015)
